According to patent US5859004A, “Use of heterocyclic compounds for the treatment of conditions caused by malfunctioning of the nicotinic cholinergic system” (Novo Nordisk A/S, priority 1995, dated 1999):
Read-outs that look alike come from different tables or passages of the source.

Legend:
healthy humans = details: cited from earlier work
[1] = test system: Alzheimer's disease patients; details: cited from earlier work
Tourette's syndrome = details: in vivo; cited from earlier work
dopaminergic effects = details: various behavioral models; cited from earlier work
dopamine release = details: nucleus accumbens versus striatum; cited from earlier work
substantia nigra = details: chronic nicotine; lesioning; cited from earlier work
[2] = target: T1, nicotinic acetylcholine receptors (rat cortical receptors) (Rattus norvegicus, UniProt P09483+P12390); assay: Inhibition of specific binding of ^3 H-methylcarbamylcholine (^3 H-MCC); details: for Ratio Oxo/MCC: IC50 ^3 H-Oxo / IC50 ^3 H-MCC, selectivity nicotinic over muscarinic; for IC50: rat cortical receptors, ^3 H-MCC 2 nM, 0° C., 60 min
T1 construct: Fresh or frozen rat, brain tissue (hippocampus or cortex) was homogenized; from tissue; host or cells: rat brain tissue (hippocampus or cortex)
T1 sequence (P09483 31-630): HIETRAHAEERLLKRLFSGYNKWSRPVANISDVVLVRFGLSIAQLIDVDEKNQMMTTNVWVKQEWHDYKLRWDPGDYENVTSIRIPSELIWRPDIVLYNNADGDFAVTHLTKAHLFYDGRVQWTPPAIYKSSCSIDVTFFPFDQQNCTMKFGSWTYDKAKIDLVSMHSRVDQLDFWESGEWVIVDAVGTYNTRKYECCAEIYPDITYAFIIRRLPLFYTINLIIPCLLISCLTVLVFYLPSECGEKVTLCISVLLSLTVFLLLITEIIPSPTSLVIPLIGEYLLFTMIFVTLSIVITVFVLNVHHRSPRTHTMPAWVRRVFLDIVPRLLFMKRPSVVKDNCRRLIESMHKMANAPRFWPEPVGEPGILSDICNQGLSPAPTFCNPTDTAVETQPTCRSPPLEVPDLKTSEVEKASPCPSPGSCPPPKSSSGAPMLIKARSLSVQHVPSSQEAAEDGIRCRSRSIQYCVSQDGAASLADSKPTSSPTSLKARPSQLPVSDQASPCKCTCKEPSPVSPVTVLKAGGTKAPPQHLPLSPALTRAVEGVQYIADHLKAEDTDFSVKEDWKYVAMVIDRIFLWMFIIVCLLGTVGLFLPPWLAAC
T1 sequence (P12390 25-500): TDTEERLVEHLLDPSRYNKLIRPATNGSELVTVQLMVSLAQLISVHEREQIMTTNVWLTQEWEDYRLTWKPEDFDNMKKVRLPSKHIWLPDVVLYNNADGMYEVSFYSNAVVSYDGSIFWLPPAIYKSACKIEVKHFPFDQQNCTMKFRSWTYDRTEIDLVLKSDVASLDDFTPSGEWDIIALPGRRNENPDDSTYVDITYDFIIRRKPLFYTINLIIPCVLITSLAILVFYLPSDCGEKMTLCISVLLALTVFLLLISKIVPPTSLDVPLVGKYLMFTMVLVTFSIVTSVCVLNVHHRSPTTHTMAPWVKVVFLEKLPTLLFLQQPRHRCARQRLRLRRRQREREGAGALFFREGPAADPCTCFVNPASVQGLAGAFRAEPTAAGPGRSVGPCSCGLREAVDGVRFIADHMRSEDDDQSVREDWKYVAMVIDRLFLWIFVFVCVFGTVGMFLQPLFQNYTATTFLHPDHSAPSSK
Description: The pharmacological properties of the compounds of the invention can be illustrated by determining their capability to inhibit the specific binding of ^3 H-methylcarbamylcholine (^3 H-MCC) (Abood and Grassi, Biochem. Pharmacol., Vol. 35, pp. 4199--4202, (1986)).
^3 H-MCC labels the nicotinic receptors in the CNS. The inhibitory effect on ^3 H-MMC binding reflects the affinity for nicotinic acetylcholine receptors.
Fresh or frozen rat, brain tissue (hippocampus or cortex) was homogenized in assay buffer (50 mM Tris-HCl, pH 7.4, 120 mM NaCl, 5 mM KCl, 2 mM CaCl2, 1 mM MgCl2) and centrifuged for 10 min. at 40.000×g. Pellets were subsequently reconstituted in assay buffer and an appropriate amount of tissue sample was mixed in tubes with ^3 H-methylcarbamylcholine (NEN, NET-951; final concentration 2 nM) and test drug. The tubes were incubated at 0° C. for 60 min. Unbound ligand was separated from bound ligand by vacuum filtration through GF/B filters presoaked in 0.5% polyethylenimine. Filters were washed three times with 5 ml wash buffer (50 mM Tris-HCl, pH 7.4) and transferred to vials. 4 ml scintillation fluid was added and the radioactivity was measured by scintillation counting. Unspecific binding was measured with 10 μM nicotine.
The IC50 values of the test compounds were determined by nonlinear regression analyses (GraphPad InPlot).
Table I illustrates the affinity of the compounds of the present invention for nicotinic and muscarinic receptors as determined by ^3 H-MCC and ^3 H-Oxo binding to rat cortical receptors. The compounds, however, show selective affinity for nicotinic receptors as compared to muscarinic receptors, i.e OXO/MCC>1.

[3] = target: muscarinic acetylcholine receptors (rat cortical receptors); assay: Inhibition of specific binding of ^3 H-Oxotremorine-M (^3 H-Oxo); details: rat cortex; ^3 H-Oxotremorine 1.0 nM, 25° C., 30 min
Description: Furthermore, the pharmacological properties of the compounds of the invention can also be illustrated by determining their capability to inhibit the specific binding of ^3 H-Oxotremorine-M (^3 H-Oxo). Birdsdall N. J. M., Hulme E. C., and Burgen A. S. V. (1980). "The Character of Muscarinic Receptors in Different Regions of the Rat Brain". Proc. Roy. Soc. London (Series B) 207,1.
^3 H-Oxo labels muscarinic receptor in the CNS (with a preference for agonist domains of the receptors). Three different sites are labelled by ^3 H-Oxo. […] Using the present experimental conditions only the high and medium affinity sites are determined.
The inhibitory effects of compounds on ^3 H-Oxo binding reflects the affinity for muscarinic acetylcholine receptors.
All preparations are performed at 0°-4° C. unless otherwise indicated. Fresh cortex (0.1-1 g) from male Wistar rats (150-250 g) is homogenized for 5-10 s in 10 ml 20 mM Hepes pH: 7.4, with an Ultra-Turrax homogenizer. The homogenizer is rinsed with 10 ml of buffer and the combined suspension centrifuged for 15 min. at 40,000×g. The pellet is washed three times with buffer. In each step the pellet is homogenized as before in 2×10 ml of buffer and centrifuged for 10 min. at 40,000×g.
The final pellet is homogenized in 20 mM Hepes pH: 7.4 (100 ml per g of original tissue) and used for binding assay. Aliquots of 0.5 ml is added 25 μl of test solution and 25 μl of ^3 H-Oxotremorine (1.0 nM, final concentration) mixed and incubated for 30 min. at 25° C. Non-specific binding is determined in triplicate using arecoline (1 μg/ml, final concentration) as the test substance. After incubation samples are added 5 ml of ice-cold buffer and poured directly onto Whatman GF/C glass fiber filters under suction and immediately washed 2 times with 5 ml of ice-cold buffer. The amount of radioactivity on the filters are determined by conventional liquid scintillation counting. Specific binding is total binding minus non specific binding.
Test substances are dissolved in 10 ml water (if necessary heated on a steam-bath for less than 5 min.) at a concentration of 2.2 mg/ml. 25-75% inhibition of specific binding must be obtained before calculation of IC50. The test value will be given as IC50 (the concentration (nM) of the test substance which inhibits the specific binding of ^3 H-Oxo by 50%).
IC50 =(applied test substance concentration)×(Cx /Co
where Co is specific binding in control assays and Cx is the specific binding in the test assay. (The calculations assume normal mass-action kinetics).
Table I illustrates the affinity of the compounds of the present invention for nicotinic and muscarinic receptors as determined by ^3 H-MCC and ^3 H-Oxo binding to rat cortical receptors. […]

[4] = target: muscarinic acetylcholine receptors (rat cortical receptors); details: read-out: affinity of site labelled by ^3 H-Oxo, cited from earlier work
nicotinic = details: age related; cited from earlier work

| SMILES | Ratio Oxo/MCC [2] | IC50 [2] [nM] | IC50 [3] [nM] | further results |
| --- | --- | --- | --- | --- |
| CN1CCCC1c1cccnc1 (stereo not shown) [nicotine] | – | – | – | attention and memory (healthy humans): improved attention and memory; attention and memory [1]: improved attention and memory; effects in Tourette's syndrome (Tourette's syndrome): beneficial effects in Tourette's syndrome; potentiation of dopaminergic effects (dopaminergic effects): will potentiate dopaminergic effects in various behavioral models; dopamine release (dopamine release): stimulates dopamine release in the nucleus accumbens more potently than in striatum; protection against cell loss in the substantia nigra (substantia nigra): may protect against cell loss in the substantia nigra caused by lesioning |
| Cc1cc(/C=C2/CN3CCCC2C3)on1.O=C(O)C(=O)O (stereo not shown) [Compound 4, (E)-6-(3-methyl-5-isoxazolyl)methylene-1-azabicyclo[3.2.1]octane oxalate] | 22.1 | 81 | 1780 | – |
| C[N+](C)(C)CC#CCN1CCCC1=O [^3 H-Oxo, ^3 H-Oxotremorine-M] | – | – | – | Kd ([4]; high affinity site): 1.8 nM; Kd ([4]; medium affinity site): 20 nM; Kd ([4]; third (lowest affinity) site, not determined under the present conditions): 3000 nM |
| Cc1cc(/C=C2/CN3CCC2C3)on1.O=C(O)C(=O)O (stereo not shown) [Compound 6, (E)-3-(3-methyl-5-isoxazolyl)methylene-1-azabicyclo[2.2.1]heptane oxalate] | 55.0 | 20 | 1100 | – |
| Cc1cc(/C=C2\CN3CCC2C3)on1.O=C(O)C(=O)O (stereo not shown) [Compound 5, (Z)-3-(3-methyl-5-isoxazolyl)methylene-1-azabicyclo[2.2.1]heptane oxalate] | 17.2 | 25 | 430 | – |
| Cc1cc(/C=C2\CN3CCCC2C3)on1.O=C(O)C(=O)O (stereo not shown) [Compound 3, (Z)-6-(3-methyl-5-isoxazolyl)methylene-1-azabicyclo[3.2.1]octane oxalate] | 5.9 | 161 | 953 | – |
| CNC1(C)C2CCC(C2)C1(C)C (stereo not shown) [mecamylamine] | – | – | – | cognitive impairment (nicotinic): cause cognitive impairment in an age related way |
